Results on one substance are retold here after US6258776A, “Calcium-regulated kinase” (priority 1997, dated 2001).

One test relates to calmodulin (CaM-agarose). Nature of the test: binding of Ndr and deletion mutants from COS-1 cell lysates to CaM-agarose. The text has this:
In addition, the ability of untagged Ndr to interact with CaM is investigated. COS-1 cells are transfected with pECE or with derivative plasmids encoding wild-type Ndr, NdrΔ65-81 or NdrΔ1-84 (Millward, T. A., et al., (1995) Proc. Natl. Acad. Sci. USA 92, 5022-5026) using DEAE-dextran (Seed, B. and Aruffo, A. (1987) Proc. Natl. Acad. Sci. USA 84, 3365-3369). Seventy-two hours after transfection, cells are scraped into ice-cold phosphate-buffered saline (PBS), spun down, and disrupted in buffer A (TBS containing 1 mM dithiothreitol, 0.5 mM phenylmethylsulfonyl fluoride, 4 μM leupeptin and 1 mM benzamidine) using a tight-fitting all-glass dounce homogenizer. Extracts (20 μg) are adjusted to 1 mg/ml, supplemented with either 1 mM CaCl2 or 1 mM EGTA and then mixed for 2 h with 6 μl CaM-agarose. After washing three times with 1 ml of the corresponding binding buffer, the beads are eluted with buffer A containing 5 mM EGTA. Equal portions of the unbound and EGTA-eluted fractions are analysed by immunoblofting with anti-Ndr antibodies.
Samples are separated by SDS-PAGE and electroblotted to Immobilon-P membranes (Millipore). Blots are incubated in blocking buffer (50 mM Tris-HCl pH 7.5, 150 mM NaCl, 1% (v/v) Triton X-1 00, 0.5% (v/v) Tween 20, 5% (w/v) skim milk powder) and then probed for 2 h with primary antibodies diluted in the same buffer. Ndr and GST-Ndr are detected with Ab^452-465 at 4 μg/ml (Millward, T. A., et al., Op. Cit.); GST is detected with an anti-GST antiserum (1 :1000 dilution). Bound antibodies are detected using horseradish peroxidase-conjugated donkey anti-rabbit IgG antibodies and ECL substrates (Amersham).
To verify whether this domain of Ndr is indeed responsible for its interaction with CaM, deletion mutants of Ndr are expressed in COS-1 cells and tested for CaM binding as above. […] In lysates supplemented with Ca^2 , deletion of amino acids 65-81 cause a large reduction in CaM binding (to ~10% of the level of wild-type binding) as assessed by western blotting.

The test system of another test is calmodulin. The note with it: cited from earlier work.
A further test has as its system S100B. As to the kind of experiment: co-immunoprecipitation of Ndr with anti-S100B from COS-1 cells. The format is cell-based. To be noted: co-expressed with S100B. On the procedure:
For expression of Ndr and S100B in mammalian cells, the cDNAs encoding Ndr and S100B are cloned into the pECE vector, which directs expression driven by an SV40-derived promoter. In addition, an amino-terminal truncation mutant of Ndr lacking the first 84 amino acids (1-84) is used.
The plasmids encoding Ndr and S100B are transfected into COS-1 cells, either alone or in combination. Seventy-two hours later, cells extracts are prepared and immunoprecipitated with an antibody recognising S100B. In an anti-Ndr western blot of the cell extracts, it is shown that Ndr is expressed an expected.

As for “Ndr: nuclear serine/threonine protein kinase”, the “binding to CaM-agarose” value in the test with calmodulin (CaM-agarose) (lysate supplemented with EGTA) was “no detectable binding”; with calmodulin (CaM-agarose) (lysates supplemented with Ca^2+), “quantitatively and selectively removed from the lysate by CaM-agarose”. In the test with calmodulin, the binding to calmodulin result was “capable of binding to calmodulin”. For the same substance, the “co-immunoprecipitation with anti-S100B” value in the test with S100B is given as “anti-S100B antibodies co-immunoprecipitated Ndr”.
